Measurements taken from patent US20250051327A1, “MALT-1 MODULATORS” (EXSCIENTIA AI LIMITED, priority 2020, published 2025).

Tests used:
[1] = target: Recombinant human MALT-1 (amino acids 340-824) (Homo sapiens (Human), UniProt Q9UDY8); experiment: MALT-1 inhibition assay (fluorogenic substrate Ac-LRSR-Rh110-DP); type: biochemical; conditions: recombinant human MALT-1, substrate Ac-LRSR-Rh110-DP
Method in brief: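 MALT-1 at 3 nM final was reacted with 10 μM Ac-LRSR-Rh110-DP, with substrate addition starting the reaction. Incubation ran 60 minutes at 25° C in the dark. Percent inhibition from fluorescence across doses was fitted to a 4-parameter logistic to give IC50.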

[2] = system: IL-2 secretion by human effector memory T cells (TEM); experiment: Effector memory T cells IL-2 release assay; type: cell-based; conditions: T-cell; human CD4+ effector memory T cells, CD3/CD28 bead stimulation, 24 h; read-out: CD4TC IL2 IC50
Method in brief: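 Human CD4+ effector memory T cells from healthy-donor buffy coats were stimulated with anti-CD3/CD28 Dynabeads and exposed to 10 semi-log compound doses (0.1% DMSO) for 24 h at 37 °C. Supernatant IL-2 was measured by HTRF, and IC50 came from a 4-parameter logistic fit to maximal IL-2. Viability was checked by flow cytometry.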

Recombinant human MALT-1 (amino acids 340-824), sequence (Q9UDY8 340-824): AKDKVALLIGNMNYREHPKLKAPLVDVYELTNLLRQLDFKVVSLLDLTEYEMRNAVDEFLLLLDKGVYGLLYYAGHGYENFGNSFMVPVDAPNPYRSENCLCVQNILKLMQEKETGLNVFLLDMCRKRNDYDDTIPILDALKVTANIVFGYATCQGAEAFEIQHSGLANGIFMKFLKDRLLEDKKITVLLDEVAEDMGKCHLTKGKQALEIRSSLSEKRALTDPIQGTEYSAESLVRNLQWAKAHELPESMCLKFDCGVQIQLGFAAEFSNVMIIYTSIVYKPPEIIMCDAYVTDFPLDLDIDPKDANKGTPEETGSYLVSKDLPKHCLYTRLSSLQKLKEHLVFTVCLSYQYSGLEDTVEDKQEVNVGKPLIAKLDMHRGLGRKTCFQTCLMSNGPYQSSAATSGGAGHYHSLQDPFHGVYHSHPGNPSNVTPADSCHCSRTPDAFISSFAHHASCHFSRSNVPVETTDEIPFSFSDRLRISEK

Structure (SMILES) | IC50 [1] | IC50 [2]
COC[C@]1(C)CCN(c2ccc([C@H](N(C)C(=O)[C@H]3CC[S@@](=N)(=O)CC3)C(F)(F)F)cc2)c2cnc3cc(Cl)nn3c21 (relative stereo) [CPD0073131, (1rel-s,4rel-s)-N-[(1S)-1-[4-[(13rel-R)-4-chloro-13-(methoxymethyl)-13-methyl-2,3,7,10-tetrazatricyclo[7.4.0.0^2,6]trideca-1(9),3,5,7-tetraen-10-yl]phenyl]-2,2,2-trifluoro-ethyl]-1-imino-N-methyl-1-oxo-1λ^6-thiane-4-carboxamide] | 0.067 µM | 0.097 µM
COC[C@]1(C)CCN(c2ccc([C@H](N(C)C(=O)[C@H]3CC[S@](=N)(=O)CC3)C(F)(F)F)cc2)c2cnc3cc(Cl)nn3c21 (relative stereo) [CPD0073132, (1rel-r,4rel-r)-N-[(1S)-1-[4-[(13rel-R)-4-chloro-13-(methoxymethyl)-13-methyl-2,3,7,10-tetrazatricyclo[7.4.0.0^2,6]trideca-1(9),3,5,7-tetraen-10-yl]phenyl]-2,2,2-trifluoro-ethyl]-1-imino-N-methyl-1-oxo-1λ^6-thiane-4-carboxamide] | 0.101 µM | 0.15 µM
COC[C@@]1(C)CCN(c2ccc([C@H](N(C)C(=O)[C@H]3CC[S@@](=N)(=O)CC3)C(F)(F)F)cc2)c2cnc3cc(Cl)nn3c21 (relative stereo) [CPD0073133, (1rel-s,4rel-s)-N-[(1S)-1-[4-[(13rel-S)-4-chloro-13-(methoxymethyl)-13-methyl-2,3,7,10-tetrazatricyclo[7.4.0.0^2,6]trideca-1(9),3,5,7-tetraen-10-yl]phenyl]-2,2,2-trifluoro-ethyl]-1-imino-N-methyl-1-oxo-1λ^6-thiane-4-carboxamide] | 0.081 µM | 0.064 µM
COC[C@@]1(C)CCN(c2ccc([C@H](N(C)C(=O)[C@H]3CC[S@](=N)(=O)CC3)C(F)(F)F)cc2)c2cnc3cc(Cl)nn3c21 (relative stereo) [CPD0073134, (1rel-r,4rel-r)-N-[(1S)-1-[4-[(13rel-S)-4-chloro-13-(methoxymethyl)-13-methyl-2,3,7,10-tetrazatricyclo[7.4.0.0^2,6]trideca-1(9),3,5,7-tetraen-10-yl]phenyl]-2,2,2-trifluoro-ethyl]-1-imino-N-methyl-1-oxo-1λ^6-thiane-4-carboxamide] | 0.085 µM | 0.057 µM
COC[C@]1(C)CCN(c2ccc([C@H](N(C)C(=O)[C@H]3CC[S@@+]([O-])CC3)C(F)(F)F)cc2)c2cnc3cc(Cl)nn3c21 (relative stereo) [CPD0073135, (1rel-s,4rel-s)-N-[(1S)-1-[4-[(13rel-R)-4-chloro-13-(methoxymethyl)-13-methyl-2,3,7,10-tetrazatricyclo[7.4.0.0^2,6]trideca-1(9),3,5,7-tetraen-10-yl]phenyl]-2,2,2-trifluoro-ethyl]-N-methyl-1-oxo-1λ^4-thiane-4-carboxamide] | 0.106 µM | 0.13 µM
COC[C@]1(C)CCN(c2ccc([C@H](N(C)C(=O)[C@H]3CC[S@+]([O-])CC3)C(F)(F)F)cc2)c2cnc3cc(Cl)nn3c21 (relative stereo) [CPD0073136, (1rel-r,4rel-r)-N-[(1S)-1-[4-[(13rel-R)-4-chloro-13-(methoxymethyl)-13-methyl-2,3,7,10-tetrazatricyclo[7.4.0.0^2,6]trideca-1(9),3,5,7-tetraen-10-yl]phenyl]-2,2,2-trifluoro-ethyl]-N-methyl-1-oxo-1λ^4-thiane-4-carboxamide] | 0.138 µM | 0.063 µM
COC[C@@]1(C)CCN(c2ccc([C@H](N(C)C(=O)[C@H]3CC[S@@+]([O-])CC3)C(F)(F)F)cc2)c2cnc3cc(Cl)nn3c21 (relative stereo) [CPD0073137, (1rel-s,4rel-s)-N-[(1S)-1-[4-[(13rel-S)-4-chloro-13-(methoxymethyl)-13-methyl-2,3,7,10-tetrazatricyclo[7.4.0.0^2,6]trideca-1(9),3,5,7-tetraen-10-yl]phenyl]-2,2,2-trifluoro-ethyl]-N-methyl-1-oxo-1λ^4-thiane-4-carboxamide] | 0.09 µM | 0.045 µM

Now from value to compound:

IC50 [1] | IC50 [2] | Structure (SMILES)
0.079 µM | 0.055 µM | COC[C@@]1(C)CCN(c2ccc([C@H](N(C)C(=O)[C@H]3CC[S@+]([O-])CC3)C(F)(F)F)cc2)c2cnc3cc(Cl)nn3c21 (relative stereo) [CPD0073138, (1rel-r,4 rel-r)-N-[(1S)-1-[4-[(13 rel-S)-4-chloro-13-(methoxymethyl)-13-methyl-2,3,7,10-tetrazatricyclo[7.4.0.0^2,6]trideca-1(9),3,5,7-tetraen-10-yl]phenyl]-2,2,2-trifluoro-ethyl]-N-methyl-1-oxo-1λ^4-thiane-4-carboxamide]
0.067 µM | 0.197 µM | CN1CC[C@H](C(=O)N(C)[C@@H](c2ccc(N3CCCc4c3cnc3cc(Cl)nn43)cc2)C(F)(F)F)CC1=O (relative stereo) [CPD0073141, (4rel-S)-N-[(1S)-1-(4-{4-chloro-2,3,7,10-tetraazatricyclo[7.4.0.0^2,6]trideca-1(9),3,5,7-tetraen-10-yl}phenyl)-2,2,2-trifluoroethyl]-N,1-dimethyl-2-oxopiperidine-4-carboxamide]
0.068 µM | 0.122 µM | CN1CC[C@@H](C(=O)N(C)[C@@H](c2ccc(N3CCCc4c3cnc3cc(Cl)nn43)cc2)C(F)(F)F)CC1=O (relative stereo) [CPD0073142, (4rel-R)-N-[(1S)-1-(4-{4-chloro-2,3,7,10-tetraazatricyclo[7.4.0.0^2,6]trideca-1(9),3,5,7-tetraen-10-yl}phenyl)-2,2,2-trifluoroethyl]-N,1-dimethyl-2-oxopiperidine-4-carboxamide]
0.068 µM | 0.107 µM | CN(C(=O)[C@H]1CCN(S(C)(=O)=O)C1)[C@@H](c1ccc(N2CCCc3c2cnc2cc(Cl)nn32)cc1)C(F)(F)F (relative stereo) [CPD0073143, (3rel-S)-N-[(1S)-1-(4-{4-chloro-2,3,7,10-tetraazatricyclo[7.4.0.0^2,6]trideca-1(9),3,5,7-tetraen-10-yl}phenyl)-2,2,2-trifluoroethyl]-1-methanesulfonyl-N-methylpyrrolidine-3-carboxamide]
0.066 µM | 0.116 µM | CN(C(=O)[C@@H]1CCN(S(C)(=O)=O)C1)[C@@H](c1ccc(N2CCCc3c2cnc2cc(Cl)nn32)cc1)C(F)(F)F (relative stereo) [CPD0073144, (3rel-R)-N-[(1S)-1-(4-{4-chloro-2,3,7,10-tetraazatricyclo[7.4.0.0^2,6]trideca-1(9),3,5,7-tetraen-10-yl}phenyl)-2,2,2-trifluoroethyl]-1-methanesulfonyl-N-methylpyrrolidine-3-carboxamide]
0.113 µM | 0.235 µM | CC(=O)N1CC[C@@H](C(=O)N(C)[C@@H](c2ccc(N3CCCc4c3cnc3cc(Cl)nn43)cc2)C(F)(F)F)C1 (relative stereo) [CPD0073188, (3rel-R)-1-acetyl-N-[(1S)-1-(4-{4-chloro-2,3,7,10-tetraazatricyclo[7.4.0.0^2,6]trideca-1(9),3,5,7-tetraen-10-yl}phenyl)-2,2,2-trifluoroethyl]-N-methylpyrrolidine-3-carboxamide]
